These results are taken from BindingDB's records for doi:10.1016/j.chembiol.2006.06.007 (University of Wisconsin-Madison, 2006).

Each structure is given as a SMILES string. pIC50, pKd: −log10 of the molar value. A value given as a limit tells only on which side of the number the result lay.

What all share (experiment): High-throughput FP Assay
In assay [1] the target is T1, UDP-galactopyranose mutase (Mycobacterium tuberculosis (strain ATCC 25618 / H37Rv), UniProt P9WIQ1). As for the experimental part:
(§1) To access the ability of compounds to inhibit the catalytic activity of UGM, an HPLC assay was employed. Inhibition constants were determined by monitoring UGM activity at a single substrate concentration while varying inhibitor concentration.

The target of assay [2] is T1, UDP-galactopyranose mutase. This is another data set of the same source.
Assay [3] concerns the target T2, UDP-galactopyranose mutase (Klebsiella pneumoniae, UniProt Q762K7).
Assay [4] concerns the target T2, UDP-galactopyranose mutase. How it is done:
as §1
The source holds these as a separate data set.

T2 sequence (Q762K7 whole entry): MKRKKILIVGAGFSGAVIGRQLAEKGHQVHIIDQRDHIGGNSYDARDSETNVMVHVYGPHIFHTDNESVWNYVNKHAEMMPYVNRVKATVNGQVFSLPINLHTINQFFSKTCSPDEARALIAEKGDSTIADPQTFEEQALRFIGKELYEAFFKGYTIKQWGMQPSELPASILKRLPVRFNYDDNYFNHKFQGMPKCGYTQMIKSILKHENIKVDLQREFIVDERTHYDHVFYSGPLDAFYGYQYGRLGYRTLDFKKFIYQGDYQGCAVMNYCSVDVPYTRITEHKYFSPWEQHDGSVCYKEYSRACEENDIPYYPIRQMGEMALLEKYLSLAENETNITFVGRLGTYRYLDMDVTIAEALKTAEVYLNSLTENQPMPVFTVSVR
T1 sequence (P9WIQ1 whole entry): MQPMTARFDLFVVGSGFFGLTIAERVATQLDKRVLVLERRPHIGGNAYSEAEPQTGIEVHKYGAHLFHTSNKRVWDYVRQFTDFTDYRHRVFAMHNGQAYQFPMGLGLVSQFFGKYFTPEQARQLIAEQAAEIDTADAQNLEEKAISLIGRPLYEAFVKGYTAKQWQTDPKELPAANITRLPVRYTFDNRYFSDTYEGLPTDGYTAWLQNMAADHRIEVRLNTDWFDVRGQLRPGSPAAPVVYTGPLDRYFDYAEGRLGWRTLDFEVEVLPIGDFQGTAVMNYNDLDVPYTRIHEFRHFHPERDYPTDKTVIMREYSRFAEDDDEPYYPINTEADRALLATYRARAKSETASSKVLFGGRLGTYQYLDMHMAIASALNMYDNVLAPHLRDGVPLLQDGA

What is called pIC50 is the IC50 on a negative log10 scale, so that one unit is a factor of ten. In general, pKd refers to the negative decadic logarithm of the Kd, by convention in mol/L. High values mean a small Kd, low ones a large Kd. As for `O=C(O)c1cc(NC(=S)NCCCCCCOP(=O)(O)OP(=O)(O)OCC2OC(n3ccc(=O)[nH]c3=O)C(O)C2O)ccc1-c1c2ccc(=O)cc-2oc2cc(O)ccc12` (stereo unspecified) [Fluorescent Probe 1], the negative-log IC50 (pIC50) in assay [1] was 5.24. In addition, the pKd in assay [2] was 6.80; in assay [3] it was 7.00.

Take `NS(=O)(=O)c1ccc(N2N=C(C(F)(F)F)/C(=C/c3ccc(-c4ccc5c(c4)C(=O)NC5=O)o3)C2=O)cc1` [Pyrazol analog, 2]: the pKd in assay [3] is 5.82.

As to `CCOC(=O)c1ccc(-c2ccc(/C=C3\C(=O)N(c4ccc(S(N)(=O)=O)cc4)N=C3C(F)(F)F)o2)cc1` [Pyrazol analog, 3], the negative-log Kd (pKd) in assay [3] is 5.51.

For `CCOC(=O)c1cc(-c2ccc(/C=C3\C(=O)N(c4ccc(S(N)(=O)=O)cc4)N=C3C(F)(F)F)o2)ccc1Cl` [Pyrazol analog, 4], the pKd in assay [3] is 5.17.

As for `O=C1c2cccc3c([N+](=O)[O-])ccc(c23)C(=O)N1Cc1cccnc1` [Pyridin analog, 11], the pKd in assay [2] is 5.10.

As for `O=C1N/C(=N\S(=O)(=O)c2ccccc2)S/C1=C1/C(=O)Nc2ccc([N+](=O)[O-])cc21` [Thiazolidinone core, 5], in assay [4], the pIC50 was 4.77. In assay [3], this molecule had a pKd of 5.40.

For the molecule `O=C(O)C(Cc1ccccc1)N1C(=O)/C(=C\c2cccc(Br)c2)SC1=S` (stereo unspecified) [Thiazolidinone core, 6], the pIC50 in assay [1] was 4.19; in assay [4], 5.80. The negative logarithm of the Kd (pKd) in assay [2] was 4.92; in assay [3] it was 5.03.

In the case of `O=C1Nc2ccccc2/C1=C1/SC(=S)N(C(Cc2ccccc2)C(=O)O)C1=O` (stereo unspecified) [Thiazolidinone core, 8], the pIC50 in assay [4] is 4.03. Besides, the pKd in assay [3] was 4.97.

`O=c1/c(=C/c2cc([N+](=O)[O-])c(O)cc2Cl)sc2nc3ccccc3n12` [Thiazolidinone core, 10]: the pIC50 was 7.55 in assay [1] and 5.40 in assay [4]. Also, in assay [2], the pKd was 5.28.

On to `O=C(O)C(Cc1ccccc1)N1C(=O)/C(=C/c2cccc(Br)c2)SC1=S` (stereo unspecified) [Thiazolidinone core, 15], for which the pKd in assay [2] and in assay [3] was less than 4.48 each time.

As for `CC(C(=O)O)N1C(=O)/C(=C\c2cccc(Br)c2)SC1=S` (stereo unspecified) [Thiazolidinone core, 16], the negative-log Kd (pKd) is less than 3.48 in assay [2] and less than 4.48 in assay [3].

On to `O=C(O)C(Cc1ccc(O)cc1)N1C(=O)/C(=C\c2cccc(Br)c2)SC1=S` (stereo unspecified) [Thiazolidinone core, 17], for which the pKd was less than 4.48 in assay [2] and less than 4.95 in assay [3].

As for `O=C(O)CN1C(=O)/C(=C2/C(=O)Nc3ccccc32)SC1=S` [Thiazolidinone core, 18], the pKd in assay [2] is less than 3.48; in assay [3], less than 4.48.

For the molecule `CC(C(=O)O)N1C(=O)/C(=C2/C(=O)Nc3ccccc32)SC1=S` (stereo unspecified) [Thiazolidinone core, 19], the results for the pKd in assay [2] and in assay [3] were less than 3.48 and less than 4.48, respectively.

Consider `O=C1Nc2ccccc2/C1=C1/SC(=S)N(C(Cc2ccc(O)cc2)C(=O)O)C1=O` (stereo unspecified) [Thiazolidinone core, 20], for which the pKd in assay [2] is less than 4.48; in assay [3] it was 4.85.

In the case of `O=C(O)C(Cc1ccccc1)N1C(=O)/C(=C/c2cccc(Cl)c2)SC1=S` (stereo unspecified) [Thiazolidinone core, 21], in assay [1], the pIC50 was 4.31. Besides, the negative-log Kd (pKd) in assay [2] is 4.80; in assay [3], 4.67.

Regarding `O=C(O)C(Cc1ccccc1)N1C(=O)/C(=C/c2cccc(I)c2)SC1=S` (stereo unspecified) [Thiazolidinone core, 22], the pIC50 in assay [1] is 4.39. Further, the pKd in assay [2] is 5.22; in assay [3], 5.20.

Regarding `O=C(O)C(Cc1ccccc1)N1C(=O)/C(=C\c2cccc(F)c2)SC1=S` (stereo unspecified) [Thiazolidinone core, 23], the pKd in assay [2] and in assay [3] was less than 4.48 each time.

For `O=C(O)[C@H](Cc1ccccc1)N1C(=O)/C(=C/c2ccc(Br)cc2)SC1=S` [Thiazolidinone core, 24], the pIC50 in assay [1] was 4.46. Further, the pKd is 5.03 in assay [2] and less than 4.48 in assay [3].

As to `O=C(O)C(Cc1ccccc1)N1C(=O)/C(=C\c2ccccc2Br)SC1=S` (stereo unspecified) [Thiazolidinone core, 25], the pKd in assay [2] and in assay [3] was less than 4.48 throughout.

With `O=C(O)C(Cc1ccccc1)N1C(=O)/C(=C\c2cccc([N+](=O)[O-])c2)SC1=S` (stereo unspecified) [Thiazolidinone core, 26], the pKd in assay [2] and in assay [3] was less than 4.48 throughout.

As for `Cc1cccc(/C=C2/SC(=S)N(C(Cc3ccccc3)C(=O)O)C2=O)c1` (stereo unspecified) [Thiazolidinone core, 27], the pKd in assay [2] and in assay [3] was less than 4.48 in each case.

On to `COc1cccc(/C=C2/SC(=S)N(C(Cc3ccccc3)C(=O)O)C2=O)c1` (stereo unspecified) [Thiazolidinone core, 28], for which the pKd in assay [2] and in assay [3] was less than 4.48 throughout.

`O=C(O)C(Cc1ccccc1)N1C(=O)/C(=C\c2ccccc2)SC1=S` (stereo unspecified) [Thiazolidinone core, 29]: the pKd in assay [2] and in assay [3] was less than 4.48 each time.

As for `O=C1Nc2ccc([N+](=O)[O-])cc2/C1=C1/SC(=S)N(C(Cc2ccccc2)C(=O)O)C1=O` (stereo unspecified) [Thiazolidinone core, 30], the pIC50 in assay [1] is less than 4.00. The pKd in assay [2] is 5.00; in assay [3], 5.24.

As to `O=C(O)N1C(=O)/C(=C\c2ccccc2)SC1=S` [Thiazolidinone core, 31], the values for the pKd in assay [2] and in assay [3] were less than 3.48 and less than 4.48, respectively.
